Converted amounts (≈) assume the structure as drawn. The source made the active and inactive calls. No cut-off for these calls is given here.
What was measured:
Candida albicans [1] = assay: Antifungal activity against Candida albicans ATCC 90028 assessed as number of fungal cells without pseudohyphae out of 100 cells at 0.5 time MIC after 0 to 6 hrs by light microscopy; assay type: functional
Candida albicans [2] = assay: Antifungal activity against Candida albicans ATCC 90028 assessed as inhibition of fungal ergosterol synthesis at 25 ug/mL after 16 hrs by UV spectrophotometry; assay type: functional, organism-based
Aspergillus sp. = assay: Antifungal activity against Aspergillus sp. after 48 hrs by macro tube dilution method; assay type: functional
Pichia kudriavzevii = assay: Antifungal activity against Candida krusei ATCC 30068 after 48 hrs by macro tube dilution method; assay type: functional; details: ATCC 30068, 48 h
Candida albicans [3] = assay: Antifungal activity against Candida albicans ATCC 90028 assessed as changes in fungal protein expression at 0.5 time MIC after 1 hr by electrophoresis-based microchip technology; assay type: functional, organism-based
Saccharomyces cerevisiae = assay: Antifungal activity against Saccharomyces cerevisiae after 48 hrs by macro tube dilution method; assay type: functional
Candida albicans [4] = assay: Antifungal activity against Candida albicans ATCC 90028 assessed as number of fungal cells with pseudohyphae out of 100 cells at 0.5 time MIC after 0 to 6 hrs by light microscopy; assay type: functional
Candida albicans [5] = assay: Inhibition of chitin synthase in Candida albicans ATCC 90028 at 1.5 times MIC by liquid scintillation analyzer relative to nikkomycin
Candida parapsilosis = assay: Antifungal activity against Candida parapsilosis ATCC 22019 after 48 hrs by macro tube dilution method; assay type: functional; details: Lodderomyces parapsilosis, ATCC 22019, 48 h
Nakaseomyces glabratus = assay: Antifungal activity against Candida glabrata ATCC 3916 after 48 hrs by macro tube dilution method; assay type: functional; details: ATCC 3916, 48 h
Candida albicans [6] = assay: Antifungal activity against Candida albicans ATCC 90028 after 48 hrs by macro tube dilution method; assay type: functional; details: ATCC 90028, 48 h
Rattus norvegicus = organism: Rattus norvegicus; assay: Inhibition of lactate dehydrogenase in Wistar rat kidney at 1.5 times MIC relative to control
Candida albicans [7] = assay: Antifungal activity against Candida albicans ATCC 90028 assessed as changes in fungal protein expression at 2 times MIC after 1 hr by electrophoresis-based microchip technology; assay type: functional, organism-based
Candida albicans [8] = assay: Antifungal activity against Candida albicans ATCC 90028 assessed as inhibition of fungal ergosterol synthesis at 1.56 ug/mL after 16 hrs by UV spectrophotometry; assay type: functional, organism-based
Candida albicans [9] = assay: Antifungal activity against Candida albicans ATCC 90028 assessed as inhibition of fungal ergosterol synthesis at 0.5 times MIC after 16 hrs by UV spectrophotometry; assay type: functional, organism-based

SMILES | Activity (Candida albicans [1]) | Activity (Candida albicans [2]) | MIC (Aspergillus sp.) [µg/mL] | MIC (Pichia kudriavzevii) [µg/mL] | Activity (Candida albicans [3]) | MIC (Saccharomyces cerevisiae) [µg/mL] | Activity (Candida albicans [4]) | inhibition (Candida albicans [5]) | MIC (Candida parapsilosis) [µg/mL] | MIC (Nakaseomyces glabratus) [µg/mL] | MIC (Candida albicans [6]) [µg/mL] | inhibition (Rattus norvegicus) | Activity (Candida albicans [7]) | Activity (Candida albicans [8]) | Activity (Rattus norvegicus) | Activity (Candida albicans [9])
O=C1/C(=C/c2ccccc2)CCCCC1CN1CCCCC1 (configuration not stated) | 39 | inactive | 100 (≈ 336 µM) | 100 (≈ 336 µM) | inactive | 100 (≈ 336 µM) | 47 | 24% | 200 (≈ 672 µM) | 100 (≈ 336 µM) | 50 (≈ 168 µM) | inactive | inactive | – | – | –
OC(Cn1cncn1)(Cn1cncn1)c1ccc(F)cc1F | – | – | – | – | – | – | – | – | – | – | – | – | – | inactive | – | –
COc1cccc(/C=C2\CCC(CN3CCOCC3)C2=O)c1 (configuration not stated) | – | – | 50 (≈ 166 µM) | 3.12 (≈ 10.4 µM) | – | 1.56 (≈ 5.18 µM) | – | inactive | 3.12 (≈ 10.4 µM) | 3.12 (≈ 10.4 µM) | 3.12 (≈ 10.4 µM) | – | – | inactive | inactive | –
COc1ccccc1/C=C1\CCC(CN2CCOCC2)C1=O (configuration not stated) | 81 | – | > 200 | 3.12 (≈ 10.4 µM) | – | 6.25 (≈ 20.7 µM) | 9 | – | 12.5 (≈ 41.5 µM) | 12.5 (≈ 41.5 µM) | 3.12 (≈ 10.4 µM) | – | – | – | – | inactive
